Experimental data reported in patent US4442093A, “Method for administering 24,25-dihydroxycholecalciferol to persons suffering from hypercalcemia” (Kureha Kagaku Kogyo Kabushiki Kaisha, priority 1981, dated 1984).

What was measured:
[1] = system: ulcer found on the duodenum; experiment: Healing of acetic acid induced duodenal ulcer (Example 10); type: in vivo, male rats; settings: 20 µg/kg/day oral, 10 days
Experimental: Fourty five male rats of body weight of 240 to 260 g were equally divided into three groups, each consisting of 15 animals, and they were subjected to an operation following the method of Okabe et al. (refer to Amer. J. Dig. Dia., 16, 277, 1971), in which under anesthesia by ether, a circular frame made of a metal was placed on the serosa 5 to 7 mm from the pylorus and 0.06 ml of gracial acetic acid was poured onto the round part within the frame and after 30 sec, the acetic liquid was removed with the frame.
The thus operated rats of the first group were administered orally with a suspension of […] of 24R,25-(OH)2 -D3 in Panacete®810 containing 0.2% by weight of ethanol once a day for continuous 10 days from the third day of the operation at a daily dose rate of 20 micrograms of 24R,25-(OH)2 -D3 /kg. To the thus operated rats of the second group (control), only Panacete®810 was orally administered at a daily dose rate of 2 ml/kg for continuous 10 days.
The thus operated rats of the third group were used in the comparative test. Namely, they were treated in the same manner as those of the first group except for administration of gefarnate (3,7-dimethyl-2,6-octadienyl-5,9,13-trimethyl-4,8,12-tetradecatrienoate) at a daily dose rate of 20 microgram/kg body weight in stead of 24R,25-(OH)2 -D3 in the first group.
After finishing the final administration, all the rats were sacrificed by ether and their duodenum was taken out for autopsy. The length and the width of the ulcer found on the duodenum were measured, and their product with a unit of mm^2 was taken and named as the ulcer coefficient. The rate of healing of the ulcer was calculated by the following formula: [formula] wherein C is the ulcer coefficient of control and U is the ulcer coefficient of the group to which the present compound was administered.

[2] = system: content of magnesium in serum; experiment: Serum magnesium in rats given puromycin aminonucleoside (Example 15); type: in vivo, male Wistar rats; settings: AN 1.5 mg/100 g
Experimental: Forty male Wistar rats in 9th week after birth were divided into four groups, and the rats of each group were treated as follows.
To the rats of the first group were administered subcutaneously physiological saline solution once a day for continuous 12 days at a daily dose of 0.1 ml/100 g body weight with the simultaneous oral administration of triglyceride ester of fatty acid used in Example 1 (abbreviated as MCT) containing 0.1% by weight of ethanol once a day for continuous 12 days at a daily dose of 0.2 ml/100 g body weight followed by oral administration of only MCT once a day for another 3 continuous days at the same daily dose rate.
To the rats of the second group were subcutaneously administered a solution of 1.5 mg of puromycin aminonucleoside (abbreviated hereinafter as AN) in 0.1 ml of physiological saline solution once a day for continuous 12 days at a daily dose rate of 1.5 mg of AN/100 g body weight. The saline solution had been sterilized with a Milipore filter before administration. To the rats were further administered orally MCT in the same manner as in those of the first group. […]
On 15th day after the commencement of the above-mentioned administration, blood specimen was collected from all the rats, and after preparing each specimen of serum from each blood specimen, the content of magnesium in each serum specimen was determined by atomic absorption method. […]

[3] = system: inorganic phosphate in serum; experiment: Serum inorganic phosphate in chronic renal failure patients without hemodialysis (Example 20); type: in vivo, human
Experimental: Eight patients suffering from chronic renal failure and not being subjected to hemodialysis shown in Table 14 were treated by oral daily administration of 24R,25-(OH)2 -D3 in a form of the soft capsule composition obtained in Example 6 at a daily dose of 2 to 10 micrograms for 8 weeks. The concentration of inorganic phosphate in the serum of each patient before the above-mentioned administration and that after completion of the above-mentioned administration for 8 weeks were determined by the Molybdenum Blue method, the results being shown in Table 14.

[4] = 30-day repeated oral administration toxicity (Example 26); type: in vivo, ICR mouse; settings: 10 to 1000 µg/kg/day p.o., 30 days
Experimental: 24R,25-(OH)2 -D3 was dissolved in Panacete® 810 containing 1% by weight of ethanol, and the solution was forcibly p.o. administered once a day for 30 continuous days to each male or female ICR mouse of the groups shown in Table 20 at each one of the daily dose rates also shown in Table 20.
As the control, Panacete 810 was solely and forcibly p.o. administered to the mice of the same strain once a day for 30 continuous days.

## C=C1CC[C@H](O)C/C1=C/C=C1\CCC[C@]2(C)[C@@H]([C@H](C)CC[C@@H](O)C(C)(C)O)CC[C@@H]12 [24R,25-(OH)2 -D3]
[1]
  ulcer coefficient: 1.5 mm^2
[1]; vs control
  rate of ulcer healing: 80%
[2]; 3rd group, dose 1 per 100 g b.w. oral 12 days
  Mg in serum: 4.5 ± 0.32 mg/dL
[2]; 4th group, dose 10 per 100 g b.w. oral 12 days
  Mg in serum: 4.3 ± 0.30 mg/dL
[3]; average of 8 patients, 2 to 10 µg/day, 8 weeks
  Concentration of inorganic phosphate after administration, average: 4.60 ± 0.66 mg/dL
[3]; average of 8 patients, baseline
  Concentration of inorganic phosphate before administration, average: 6.24 ± 0.53 mg/dL
[3]; patient 1 (person six), 10 µg/day, 8 weeks
  Concentration of inorganic phosphate after administration: 5.5 mg/dL
[3]; patient 1 (person six), baseline
  Concentration of inorganic phosphate before administration: 7.2 mg/dL
[3]; patient 2 (person sixteen), 6 µg/day, 8 weeks
  Concentration of inorganic phosphate after administration: 4.7 mg/dL
[3]; patient 2 (person sixteen), baseline
  Concentration of inorganic phosphate before administration: 6.3 mg/dL
[3]; patient 3 (person four), 4 µg/day, 8 weeks
  Concentration of inorganic phosphate after administration: 4.7 mg/dL
[3]; patient 3 (person four), baseline
  Concentration of inorganic phosphate before administration: 5.9 mg/dL
[3]; patient 4 (person twelve), 8 µg/day, 8 weeks
  Concentration of inorganic phosphate after administration: 4.9 mg/dL
[3]; patient 4 (person twelve), baseline
  Concentration of inorganic phosphate before administration: 6.5 mg/dL
[3]; patient 5 (person twenty), 6 µg/day, 8 weeks
  Concentration of inorganic phosphate after administration: 5.3 mg/dL
[3]; patient 5 (person twenty), baseline
  Concentration of inorganic phosphate before administration: 6.6 mg/dL
[3]; patient 6 (person three), 4 µg/day, 8 weeks
  Concentration of inorganic phosphate after administration: 3.8 mg/dL
[3]; patient 6 (person three), baseline
  Concentration of inorganic phosphate before administration: 5.8 mg/dL
[3]; patient 7 (person one), 2 µg/day, 8 weeks
  Concentration of inorganic phosphate after administration: 3.7 mg/dL
[3]; patient 7 (person one), baseline
  Concentration of inorganic phosphate before administration: 5.5 mg/dL
[3]; patient 8 (person ten), 6 µg/day, 8 weeks
  Concentration of inorganic phosphate after administration: 4.2 mg/dL
[3]; patient 8 (person ten), baseline
  Concentration of inorganic phosphate before administration: 6.1 mg/dL
[3]; patient of chronic renal failure, normal level 2.5 to 5.5 mg/dl
  inorganic phosphate level in serum: significantly reduced to the normal level
[4]
  histopathological examination of organs: no abnormal findings were obtained
[4]; all groups
  body weight: no significant difference of body weight was observed
  weights of internal organs: not significantly different
